Series [1] has as its system human beta-coronavirus OC43. The series can be described thus: OC43 Coronavirus Assay in HeLa cells (antiviral, cytopathic effect, cell-titer-glo). Type of series: cell-based. Particulars: Betacoronavirus 1, OC43, HeLa, Table B; OC43 coronavirus in HeLa cells, class symbols; read-out: EC50.
Another series is described as follows: in vitro. As to conditions: human.
The target of the next series is SARS-Cov-2 3CLpro (Severe acute respiratory syndrome coronavirus 2, UniProt P0DTD1). The series can be described thus: biochemical. Particulars: Table A, class symbols, read-out: SARS-Cov-2 (IC50).
Series [2] relates to SARS-CoV-2 B.1.1.7 lineage. Nature of the series: microbe, parasite or virus in culture. Particulars: Severe acute respiratory syndrome coronavirus 2, Table C, SARS-CoV-2 B.1.1.7 in A549-dual_ACE2_TMPRSS2 cells, read-out: A549-dual_ACE2_TMPRSS2 (EC50). In kind it is cell-based.
A short description of series [3]: Cytotoxicity in HeLa cells without addition of OC43 virus (in parallel). As to conditions: human, HeLa cells, without OC43 virus.

Where two headings read alike, the source gives them in different places. Bounds are passed on as bounds.

As for `C[C@H](NC(=O)C(F)(F)F)C(=O)N(C)[C@@H](CC1CC1)C(=O)N1C[C@@]2(C[C@H]1C#N)Oc1c(cccc1C1CC1)NC2=O` [Compound 99], the results for the EC50 in series [1] and in series [2] (class symbols) were 100 to 1000 nM and less than 100 nM, respectively. Also, the CC50 in the series “in vitro” is greater than 1000 nM. The 50% inhibitory concentration (IC50) at SARS-Cov-2 3CLpro is less than 20 nM. Also, in series [3], the CC50 at 6 days is greater than 10000 nM.
On the same counts, the results for `CC(C)N1CC2(CC2)C[C@H]1C(=O)N(C)[C@@H](CC1CC1)C(=O)N1C[C@@]2(C[C@H]1C#N)Oc1cc(F)cc(F)c1NC2=O` [Compound 116] are 100 to 1000 nM, 100 to 1000 nM, greater than 1000 nM, less than 20 nM and greater than 10000 nM.
In the case of `CN(C(=O)[C@@H](NC(=O)C(F)(F)F)C1CC1)[C@@H](CC1CC1)C(=O)N1C[C@@]2(C[C@H]1C#N)Oc1cccnc1NC2=O` [Compound 179], the concentration for a half-maximal effect (EC50) in series [1] was less than 100 nM; in series [2] (class symbols), 100 to 1000 nM. In “in vitro”, this molecule gave a CC50 greater than 1000 nM. At SARS-Cov-2 3CLpro, the half-maximal inhibitory concentration (IC50) was less than 20 nM. Besides, the CC50 at 6 days in series [3] is greater than 10000 nM.
On the same counts, the results for `COc1ccc(C[C@@H](NC(=O)C(F)(F)F)C(=O)N(C)[C@@H](CC2CC2)C(=O)N2C[C@@]3(C[C@H]2C#N)Oc2cccnc2NC3=O)cc1` [Compound 149] are less than 100 nM, less than 100 nM, greater than 1000 nM, less than 20 nM and greater than 10000 nM.
On the same counts, the results for `CN(C(=O)c1cc2cccc(Cl)c2[nH]1)[C@@H](CC1CC1)C(=O)N1C[C@@]2(C[C@H]1C#N)Oc1cc(F)cc(F)c1NC2=O` [Compound 133] are 100 to 1000 nM, 100 to 1000 nM, greater than 1000 nM, less than 20 nM and greater than 10000 nM.
Consider `CC(C)C[C@@H](C(=O)N1C[C@]2(Cc3ccccc3NC2=O)C[C@H]1C#N)N(C)C(=O)[C@H](C)NC(=O)C(F)(F)F` [Example 32, (S)—N—((S)-1-((3S,5S)-5-cyano-2′-oxo-1′,4′-dihydro-2′H-spiro[pyrrolidine-3,3′-quinolin]-1-yl)-4-methyl-1-oxopentan-2-yl)-N-methyl-2-(2,2,2-trifluoroacetamido)propanamide], for which the values for the EC50 in series [1] and in series [2] (class symbols) were 1000 to 10000 nM and 100 to 1000 nM, respectively. The CC50 in “in vitro” is greater than 1000 nM. For the same molecule, the IC50 at SARS-Cov-2 3CLpro is less than 20 nM. The molecule further registered a CC50 at 6 days in series [3] greater than 10000 nM.
Turning to `CN(C(=O)[C@H](CC1CC1)NC(=O)C(F)(F)F)C(CC1CC1)C(=O)N1C[C@]2(Cc3ccccc3NC2=O)C[C@H]1C#N` (stereo in doubt) [Example 33, (S)—N—((S)-1-((3S,5S)-5-cyano-2′-oxo-1′,4′-dihydro-2′H-spiro[pyrrolidine-3,3′-quinolin]-1-yl)-3-cyclopropyl-1-oxopropan-2-yl)-3-cyclopropyl-N-methyl-2-(2,2,2-trifluoroacetamido)propanamide], the EC50 is 100 to 1000 nM in series [1] and less than 100 nM in series [2] (class symbols). The same molecule gave a CC50 in the series “in vitro” greater than 1000 nM. On SARS-Cov-2 3CLpro, the half-maximal inhibitory concentration (IC50) is less than 20 nM. For the same molecule, the CC50 at 6 days in series [3] was greater than 10000 nM.
For `CN(C(=O)[C@H](COc1ccccc1)NC(=O)C(F)(F)F)[C@@H](CC1CC1)C(=O)N1C[C@@]2(C[C@H]1C#N)Oc1cccnc1NC2=O` [Compound 202], the 50% effective concentration (EC50) in series [1] was 100 to 1000 nM; in series [2] (cells given as a bound) it was greater than 1000 nM. In the series “in vitro”, this molecule had a CC50 greater than 1000 nM. Further, the IC50 on SARS-Cov-2 3CLpro is less than 20 nM. In series [3], this molecule gave a CC50 at 6 days greater than 10000 nM.
On to `CN(C(=O)C(=O)Nc1ccc(F)cc1)[C@@H](CC1CC1)C(=O)N1C[C@@]2(C[C@H]1C#N)Oc1cccnc1NC2=O` [Compound 226, N^1—((S)-1-((2R,5'S)-5′-cyano-3-oxo-3,4-dihydrospiro[pyrido[3,2-b][1,4]oxazine-2,3′-pyrrolidin]-1′-yl)-3-cyclopropyl-1-oxopropan-2-yl)-N^2-(4-fluorophenyl)-N^1-methyloxalamide], for which the EC50 in series [1] is 1000 to 10000 nM; in series [2] (cells given as a bound), greater than 1000 nM. In addition, in the series “in vitro”, the CC50 is greater than 1000 nM. Further, the IC50 on SARS-Cov-2 3CLpro was 200 to 2000 nM. This molecule came in with a CC50 at 6 days in series [3] greater than 10000 nM.

These data come from patent US20240199647A1, “ANTI-VIRAL COMPOUNDS” (Aligos Therapeutics, Inc., priority 2022, published 2024).
